Counter-ions that a name gives are not always drawn.
The compounds below were run on 293T-HRE-GFP-luc cells (assay: Cell-based reporter assay for IC50 determinations). Conditions: hypoxia 6 hrs (1% O2), luminescence, read-out: IC50 Classification.
Method in brief: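 IC50 comes from a four-parameter logistic fit of luminescence from HRE-GFP-luc 293T cells. Compounds (1:3 series, 1:50 medium dilution) were preincubated 30 min under normoxia, followed by 6 h at 1% O2, 5% CO2, 37 °C, before Steadylite luciferase detection.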
With `Cc1nc(-c2nc(-c3ccc(OC(F)(F)F)cc3)no2)nn1Cc1cccc2c1cnn2C` [Example 110, 5-(5-methyl-1-((1-methyl-1H-indazol-4-yl)methyl)-1H-1,2,4-triazol-3-yl)-3-(4-(trifluoromethoxy)phenyl)-1,2,4-oxadiazole] the IC50 was 100 to 1000 nM. In the case of `Cc1nc(-c2nc(-c3ccc(OC(F)(F)F)cc3)no2)nn1Cc1ccnc(N2CCC(O)CC2)c1` [Example 26, 1-(4-((5-Methyl-3-(3-(4-(trifluoromethoxy)phenyl)-1,2,4-oxadiazol-5-yl)-1H-1,2,4-triazol-1-yl)methyl)pyridin-2-yl)piperidin-4-ol], the IC50 is reported as < 100 nM. Work on `Cc1nc(-c2nc(-c3ccc(OC(F)(F)F)cc3)no2)nn1Cc1ccnc(N2CCCC2)n1` [Example 121, 4-[(5-methyl-3-{3-[4-(trifluoromethoxy)phenyl]-1,2,4-oxadiazol-5-yl}-1H-1,2,4-triazol-1-yl)methyl]-2-(pyrrolidin-1-yl)pyrimidine] yielded an IC50 of 100 to 1000 nM. For `Cc1nc(-c2nnc(-c3ccc(OC(F)(F)F)cc3)o2)nn1Cc1ccnc(N2CCN(C)CC2)c1` [Example 7, 1-Methyl-4-(4-((5-methyl-3-(5-(4-(trifluoromethoxy)phenyl)-1,3,4-oxadiazol-2-yl)-1H-1,2,4-triazol-1-yl)methyl)pyridin-1-ium-2-yl)piperazin-1-ium trifluoroacetate], the IC50 was 100 to 1000 nM. In the case of `Cc1nc(-c2nc(-c3ccc(OC(F)(F)F)cc3)no2)nn1Cc1ccnc(N2CCC(C#N)CC2)c1` [Example 27, 1-(4-((5-Methyl-3-(3-(4-(trifluoromethoxy)phenyl)-1,2,4-oxadiazol-5-yl)-1H-1,2,4-triazol-1-yl)methyl)pyridin-2-yl)piperidine-4-carbonitrile], the IC50 is reported as < 100 nM. For `Cc1nc(-c2nc(-c3ccc(OC(F)(F)F)cc3)no2)nn1Cc1cccc(S(=O)(=O)NC2CC2)c1` [Example 130, N-cyclopropyl-3-[(5-methyl-3-{3-[4-(trifluoromethoxy)phenyl]-1,2,4-oxadiazol-5-yl}-1H-1,2,4-triazol-1-yl)methyl]benzene-1-sulfonamide], the IC50 was < 100 nM. With `COCCCNc1cccc(Cn2nc(-c3nc(-c4ccc(OC(F)(F)F)cc4)no3)nc2C)c1` [Example 53, N-(3-Methoxypropyl)-3-((5-methyl-3-(3-(4-(trifluoromethoxy)phenyl)-1,2,4-oxadiazol-5-yl)-1H-1,2,4-triazol-1-yl)methyl)aniline] the IC50 was < 100 nM. In the case of `Cc1nc(-c2nc(-c3ccc(OC(F)(F)F)cc3)no2)nn1Cc1cccc(S(C)(=O)=O)c1` [Example 106, 5-(5-methyl-1-(3-(methylsulfonyl)benzyl)-1H-1,2,4-triazol-3-yl)-3-(4-(trifluoromethoxy)phenyl)-1,2,4-oxadiazole], the IC50 is reported as < 100 nM. For `Cc1nc(-c2nc(-c3ccc(OC(F)(F)F)cc3)no2)nn1Cc1cccc(OCCNC(=O)OC(C)(C)C)c1` [Example 67, Tert-butyl N-(2-{3-[(5-methyl-3-{3-[4-(trifluoromethoxy)phenyl]-1,2,4-oxadiazol-5-yl}-1H-1,2,4-triazol-1-yl)methyl]phenoxy}ethyl)carbamate], the IC50 was < 100 nM. In the case of `Cc1nc(-c2nc(-c3ccc(OC(F)(F)F)cc3)no2)nn1Cc1ccnc(Cl)n1` [Example 19, 5-(1-((2-Chloropyrimidin-4-yl)methyl)-5-methyl-1H-1,2,4-triazol-3-yl)-3-(4-(trifluoromethoxy)phenyl)-1,2,4-oxadiazole], the IC50 is reported as 1000 to 10000 nM. For `COCCCNC(=O)c1cccc(Cn2nc(-c3nc(-c4ccc(OC(F)(F)F)cc4)no3)nc2C)c1` [Example 14, N-(3-methoxypropyl)-3-((5-methyl-3-(3-(4-(trifluoromethoxy)phenyl)-1,2,4-oxadiazol-5-yl)-1H-1,2,4-triazol-1-yl)methyl)benzamide], the IC50 was < 100 nM. `Cc1nc(-c2ncc(-c3ccc(OC(F)(F)F)cc3)o2)nn1Cc1ccnc(N2CCN(C)CC2)c1` [Example 92, 1-Methyl-4-{4-[(5-methyl-3-{5-[4-(trifluoromethoxy)phenyl]-1,3-oxazol-2-yl}-1H-1,2,4-triazol-1-yl)methyl]pyridin-2-yl}piperazine] was tested, and the IC50 was < 100 nM.
